Assay results reported in ChEMBL document CHEMBL1139542, “Synthesis, biological evaluation, and three-dimensional quantitative structure-activity relationship study of small-molecule positive modulators of adrenomedullin” (J Med Chem, 2005).

Test system: Adrenomedullin (Homo sapiens)
Assay: Affinity against human adrenomedullin

Structure (SMILES)	Affinity [%]
Clc1ccc(OCc2nnc(CCCCCCCCc3nnc(COc4ccc(Cl)cc4)n3Nc3ccccc3)n2Nc2ccccc2)cc1	51
c1ccc(Cn2c(CCCCc3nnc(COc4ccccc4)n3Cc3ccccc3)nnc2COc2ccccc2)cc1	19
O=C(CCCCCC(=O)NNC(=O)COc1ccccc1)NNC(=O)COc1ccccc1	16
Nn1c(CCCCCCCCc2nnc(COc3ccc(Cl)cc3Cl)n2N)nnc1COc1ccc(Cl)cc1Cl	48
Nn1c(CCCCCCCCc2nnc(COc3ccc(Cl)cc3)n2N)nnc1COc1ccc(Cl)cc1	19
Oc1ccc2ccccc2c1OCc1nnc(CCCCCCCCc2nnc(COc3c(O)ccc4ccccc34)n2Nc2ccccc2)n1Nc1ccccc1	24
c1ccc(OCc2nnc(CCCCCCCc3nnc(COc4ccccc4)o3)o2)cc1	6
O=C(CCCCCCCCC(=O)NNC(=O)COc1ccccc1)NNC(=O)COc1ccccc1	25
c1ccc(Cn2c(CCCCCCCc3nnc(COc4ccccc4)n3Cc3ccccc3)nnc2COc2ccccc2)cc1	20
O=C(CCCCC(=O)NNC(=O)COc1ccccc1)NNC(=O)COc1ccccc1	1
Nn1c(CCCCCCCCc2nnc(COc3ccc4ccccc4c3O)n2N)nnc1COc1ccc2ccccc2c1O	42
c1ccc(OCc2nnc(CCCCCc3nnc(COc4ccccc4)o3)o2)cc1	4
c1ccc(OCc2nnc(CCCCc3nnc(COc4ccccc4)o3)o2)cc1	18
c1ccc(Cn2c(CCCCCCCCc3nnc(COc4ccccc4)n3Cc3ccccc3)nnc2COc2ccccc2)cc1	4
Clc1ccc(OCc2nnc(CCCCCCCCc3nnc(COc4ccc(Cl)cc4Cl)n3Nc3ccccc3)n2Nc2ccccc2)c(Cl)c1	68
Nn1c(CCCCCCCCc2nnc(COc3c(O)ccc4ccccc34)n2N)nnc1COc1c(O)ccc2ccccc12	46
c1ccc(OCc2nnc(CCCCCCc3nnc(COc4ccccc4)o3)o2)cc1	10
O=C(CCCCCCC(=O)NNC(=O)COc1ccccc1)NNC(=O)COc1ccccc1	20
c1ccc(Cn2c(CCCCCc3nnc(COc4ccccc4)n3Cc3ccccc3)nnc2COc2ccccc2)cc1	14
c1ccc(Nn2c(CCCCCCCCc3nnc(COc4ccccc4)n3Nc3ccccc3)nnc2COc2ccccc2)cc1	81
c1ccc(OCc2nnc(CCCCCCCCc3nnc(COc4ccccc4)o3)o2)cc1	5
O=C(CCCCCCCC(=O)NNC(=O)COc1ccccc1)NNC(=O)COc1ccccc1	7
Oc1c(OCc2nnc(CCCCCCCCc3nnc(COc4ccc5ccccc5c4O)n3Nc3ccccc3)n2Nc2ccccc2)ccc2ccccc12	83
c1ccc(Cn2c(CCCCCCc3nnc(COc4ccccc4)n3Cc3ccccc3)nnc2COc2ccccc2)cc1	3
